Assay results as given in patent US10457709B2, “Antimicrobial peptides, their variants and uses” (priority 2015, dated 2019).
Where two headings read alike, the source gives them in different places.

Tests used:
Format in all cases: cell-based
[1] = system: Acinetobacter johnsonii clinical strains; settings: Acinetobacter johnsonii clinical strain 1; microdilution, Muller Hinton broth-cation adjusted, 0.02% BSA, 0.2% acetic acid
How it was run: (§1)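 Broth microdilution in Mueller Hinton broth, inoculum adjusted to 5.0×10^5 cfu/ml, peptides tested at 0.125 to 128 μg/ml, 37° C for 20 to 24 hours. Yeast assays were run in potato dextrose broth. MIC was taken as the lowest concentration with no visible growth.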

[2] = system: Escherichia coli clinical strains; settings: microdilution, Muller Hinton broth-cation adjusted, 0.02% BSA, 0.2% acetic acid
How it was run: as §1

[3] = system: Pseudomonas aeruginosa clinical strains; settings: microdilution, Muller Hinton broth-cation adjusted, 0.02% BSA, 0.2% acetic acid
How it was run: as §1

[4] = system: Klebsiella pneumoniae clinical strains; settings: microdilution, Muller Hinton broth-cation adjusted, 0.02% BSA, 0.2% acetic acid
How it was run: as §1

[5] = system: Streptococcus pneumoniae clinical strains; set-up: Minimum inhibitory concentration: unit: μg/ml; settings: microdilution, Muller Hinton broth-cation adjusted, 0.02% BSA, 0.2% acetic acid
How it was run: as §1

[6] = system: Serratia marcescens clinical strains; set-up: Minimum inhibitory concentration: unit: μg/ml; settings: microdilution, Muller Hinton broth-cation adjusted, 0.02% BSA, 0.2% acetic acid
How it was run: as §1

[7] = system: Proteus mirabilis clinical strains; set-up: Minimum inhibitory concentration: unit: μg/ml; settings: microdilution, Muller Hinton broth-cation adjusted, 0.02% BSA, 0.2% acetic acid
How it was run: as §1

[8] = system: Enterobacter cloacae clinical strains; set-up: Minimum inhibitory concentration: unit: μg/ml; settings: microdilution, Muller Hinton broth-cation adjusted, 0.02% BSA, 0.2% acetic acid
How it was run: as §1

[9] = system: Staphylococcus aureus clinical strains; set-up: Minimum inhibitory concentration: unit: μg/ml; settings: microdilution, Muller Hinton broth-cation adjusted, 0.02% BSA, 0.2% acetic acid
How it was run: as §1

[10] = system: Acinetobacter baumannii clinical strains; set-up: Minimum inhibitory concentration: unit: μg/ml; settings: microdilution, Muller Hinton broth-cation adjusted, 0.02% BSA, 0.2% acetic acid
How it was run: as §1

## Gentamicin [reference compound]
[1]
  Minimum inhibitory concentration: 0.25
[2]; Escherichia coli clinical strain 1
  Minimum inhibitory concentration: 0.5
[2]; Escherichia coli clinical strain 2
  Minimum inhibitory concentration: 0.5
[2]; Escherichia coli clinical strain 3
  Minimum inhibitory concentration: 1
[2]; Escherichia coli clinical strain 4
  Minimum inhibitory concentration: 1
[2]; Escherichia coli clinical strain 5
  Minimum inhibitory concentration: 1
[3]; Pseudomonas aeruginosa clinical strain 1
  Minimum inhibitory concentration: 1
[3]; Pseudomonas aeruginosa clinical strain 2
  Minimum inhibitory concentration: 0.5
[3]; Pseudomonas aeruginosa clinical strain 3
  Minimum inhibitory concentration: 0.5
[3]; Pseudomonas aeruginosa clinical strain 4
  Minimum inhibitory concentration: 0.5
[3]; Pseudomonas aeruginosa clinical strain 5
  Minimum inhibitory concentration: 0.25
[4]; Klebsiella pneumoniae clinical strain 1
  Minimum inhibitory concentration: 2
[4]; Klebsiella pneumoniae clinical strain 2
  Minimum inhibitory concentration: 0.25
[4]; Klebsiella pneumoniae clinical strain 3
  Minimum inhibitory concentration: 2
[4]; Klebsiella pneumoniae clinical strain 4
  Minimum inhibitory concentration: 2
[4]; Klebsiella pneumoniae clinical strain 5
  Minimum inhibitory concentration: 4
[5]; Streptococcus pneumoniae clinical strain 1
  Minimum inhibitory concentration: 2
[5]; Streptococcus pneumoniae clinical strain 2
  Minimum inhibitory concentration: 2
[5]; Streptococcus pneumoniae clinical strain 3
  Minimum inhibitory concentration: 2
[5]; Streptococcus pneumoniae clinical strain 4
  Minimum inhibitory concentration: 2
[5]; Streptococcus pneumoniae clinical strain 5
  Minimum inhibitory concentration: 1
[6]; Serratia marcescens clinical strain 1
  Minimum inhibitory concentration: 1
[6]; Serratia marcescens clinical strain 2
  Minimum inhibitory concentration: 2
[6]; Serratia marcescens clinical strain 3
  Minimum inhibitory concentration: 1
[6]; Serratia marcescens clinical strain 4
  Minimum inhibitory concentration: 1
[6]; Serratia marcescens clinical strain 5
  Minimum inhibitory concentration: 1
[7]; Proteus mirabilis clinical strain 1
  Minimum inhibitory concentration: 2
[7]; Proteus mirabilis clinical strain 2
  Minimum inhibitory concentration: 2
[7]; Proteus mirabilis clinical strain 3
  Minimum inhibitory concentration: >128
[7]; Proteus mirabilis clinical strain 4
  Minimum inhibitory concentration: 8
[7]; Proteus mirabilis clinical strain 5
  Minimum inhibitory concentration: >128
[8]; Enterobacter cloacae clinical strain 1
  Minimum inhibitory concentration: 0.25
[8]; Enterobacter cloacae clinical strain 2
  Minimum inhibitory concentration: 0.25
[8]; Enterobacter cloacae clinical strain 3
  Minimum inhibitory concentration: 0.25
[8]; Enterobacter cloacae clinical strain 4
  Minimum inhibitory concentration: 0.25
[8]; Enterobacter cloacae clinical strain 5
  Minimum inhibitory concentration: 0.25
[9]; Staphylococcus aureus clinical strain 1
  Minimum inhibitory concentration: 0.5
[9]; Staphylococcus aureus clinical strain 2
  Minimum inhibitory concentration: 0.5
[9]; Staphylococcus aureus clinical strain 3
  Minimum inhibitory concentration: 0.5
[9]; Staphylococcus aureus clinical strain 4
  Minimum inhibitory concentration: 0.5
[9]; Staphylococcus aureus clinical strain 5
  Minimum inhibitory concentration: 0.5
[10]; Acinetobacter baumannii clinical strain 1
  Minimum inhibitory concentration: 0.5
[10]; Acinetobacter baumannii clinical strain 2
  Minimum inhibitory concentration: 0.25
[10]; Acinetobacter baumannii clinical strain 3
  Minimum inhibitory concentration: 0.5
[10]; Acinetobacter baumannii clinical strain 4
  Minimum inhibitory concentration: 0.5
[10]; Acinetobacter baumannii clinical strain 5
  Minimum inhibitory concentration: 0.25
